# Tested on: BMSB adult or nymph antenna
# Assay: GC-EAD antennal responses to essential oil headspace (SPME) or synthetic SSB pheromone mixture
# Set-up: species or system Halyomorpha halys
# Protocol: Headspace volatiles from several essential oils (1 ml each in a closed 20 ml glass vial) were sampled via Solid-Phase Micro-Extraction (SPME) (CAR/PDMS, 85 μm, Supelco, Bellefonte, Pa.) for 30 sec before GC-EAD and GC-MS analyses.
# BMSB nymphs and adults for electrophysiological study were taken from a lab colony originally collected from Pennsylvania, U.S.A., during the overwintering period.
# SPME samples of the various essential oils were injected splitless into a Varian CP-3800 GC equipped with a polar column (HP-INNOWAX; 30 m×0.53 mm×1.0 μm film thickness; Agilent Technologies, Wilmington, Del., USA) and a 1:1 effluent splitter that allowed simultaneous flame ionization detection (FID) and electroantennographic detection (EAD) of BMSB adult or nymph antenna to the separated volatile compounds. Helium was used as the carrier gas, and the injector and detector temperatures were 250° C. and 300° C., respectively. Column temperature was 50° C. for 1 min, rising to 240° C. at 10° C./min, and then held for 10 min. The outlet for the EAD was held in a humidified air stream flowing at 0.5 m/sec over the antennal preparation. EAD recordings were made using silver wire-glass capillary electrodes filled with Beadle-Ephrussi Ringer on freshly cut antennae. The antennal signals were stored and analyzed on a PC equipped with a serial IDAC interface box and the program EAD ver. 2.5 (Syntech, Hilversum, The Netherlands). The same GC-EAD recording procedure was also employed on the BMSB antennae against a synthetic mixture of the Spined soldier bug aggregation pheromone components (trans-2-hexenal, benzyl alcohol, and α-terpineol; 200 ng/μl each in hexane, 2 μl injected).
# Antennally active compounds (FID peaks) in the SPME samples of essential oils were identified by GC-MS on an HP 6890 GC series coupled with an HP 5973 Mass Selective Detector using the same type of GC column and conditions as described above. Compounds were identified by comparison of retention times with those of authentic standards and with mass spectra of standards.
# [1] = from the lemongrass oil, FIG. 4
# [2] = synthetic mixture of SSB aggregation pheromone components, FIG. 12
compound,measurement,setting,value
CC12CCC(CC1=O)C2(C)C (stereo not drawn) [camphor],EAD response of BMSB antennae,"from rosemary oil, FIG. 8",significant (strongly or weakly) EAD-responses
CCCCCC(=O)CCC [4-nonanone],EAD response of BMSB antennae,[1],weakly
OCc1ccccc1 [benzyl alcohol],EAD response of BMSB antennae,[2],strong antennal responses
C=CCc1ccc(O)c(OC)c1 [eugenol],EAD response of BMSB antennae,"from clove oil, FIG. 6",significant (strongly or weakly) EAD-responses
COc1ccc(C)cc1 [4-methylanisole],EAD response of BMSB antennae,"from ylang ylang oil, FIG. 7",significant (strongly or weakly) EAD-responses
CC(C)=CCC/C(C)=C/C=O [E-citral],EAD response of BMSB antennae,[1],strongly responded
cis/trans-rose oxides,EAD response of BMSB antennae,"from geranium oil, FIG. 10",significant (strongly or weakly) EAD-responses
CC(C)=CCC/C(C)=C\C=O [Z-citral],EAD response of BMSB antennae,[1],strongly responded
l-carvone,EAD response of BMSB antennae,"from spearmint oil, FIG. 5",significant (strongly or weakly) EAD-responses
P/I-menthones,EAD response of BMSB antennae,"from geranium oil, FIG. 10",significant (strongly or weakly) EAD-responses
same,EAD response of BMSB antennae,"from pennyroyal oil, FIG. 11",significant (strongly or weakly) EAD-responses
CCC/C=C/C=O [trans-2-hexenal],EAD response of BMSB antennae,[2],strong antennal responses
CC(C)=CCCC(C)CCO (stereo not drawn) [β-citronellol],EAD response of BMSB antennae,"from geranium oil, FIG. 10",significant (strongly or weakly) EAD-responses
CC1=CCC(C(C)(C)O)CC1 (stereo not drawn) [α-terpineol],EAD response of BMSB antennae,[2],weak activity
COC(=O)c1ccccc1O [methyl salicylate],EAD response of BMSB antennae,"from wintergreen oil, FIG. 9",significant (strongly or weakly) EAD-responses
C=C1CC[C@@H]2[C@H]1[C@H]1[C@H](C(C)C)CC[C@]12C [β-bourbernene],EAD response of BMSB antennae,"from geranium oil, FIG. 10",significant (strongly or weakly) EAD-responses
"CC12CCC(CC1)C(C)(C)O2 [1,8-cineole]",EAD response of BMSB antennae,"from rosemary oil, FIG. 8",significant (strongly or weakly) EAD-responses
CC(=O)OCc1ccccc1 [benzyl acetate],EAD response of BMSB antennae,"from ylang ylang oil, FIG. 7",significant (strongly or weakly) EAD-responses
CC(C)=CCC/C(C)=C/CO [geraniol],EAD response of BMSB antennae,"from geranium oil, FIG. 10",significant (strongly or weakly) EAD-responses
COC(=O)c1ccccc1 [methyl benzoate],EAD response of BMSB antennae,"from ylang ylang oil, FIG. 7",significant (strongly or weakly) EAD-responses
CC(C)=C1CC[C@@H](C)CC1=O [pulegone],EAD response of BMSB antennae,"from pennyroyal oil, FIG. 11",significant (strongly or weakly) EAD-responses
